Among the test systems are RXF 393; UACC-257; 786-0; RPMI-8226; BT-549; COLO 205; CAKI-1; SF-268; M14; IGROV-1; MDA-MB-435; HCT-15; SK-OV-3; DU-145; K562; NCI-H226; Hs-578T; MDA-MB-231; NCI/ADR-RES.
Common to all, as to assay: NCI-60 cell line screen, 48 h

Structures are written as SMILES.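 These data come from cells grown in 96-well plates and exposed to compound for 48 hours at five concentrations. GI50 marks 50% less growth.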 The source made the active and inactive calls. Rule as the data show it: active = GI50 up to about 1.1 µM and inactive = higher. Some results are limits rather than exact numbers.

As to `COCOc1ccc(C(=O)C(C)c2ccc(OCOC)cc2OCOC)c(O)c1` (centres undefined), the GI50 in the test with RXF 393 is 37.2 µM (inactive); in the test on UACC-257, 56.4 µM (inactive); in the test with 786-0 it was > 100 µM (inactive); with RPMI-8226, 71.1 µM (inactive); with BT-549, 60.5 µM (inactive); in the test with COLO 205, > 100 µM (inactive). Besides, the GI50 is 52.1 µM (inactive) with CAKI-1; > 100 µM (inactive) in the test on SF-268; > 100 µM (inactive) with M14; > 100 µM (inactive) with IGROV-1; 71.3 µM (inactive) in the test with MDA-MB-435; 78.9 µM in the test with HCT-15. Moreover, the GI50 in the test with SK-OV-3 and in the test on DU-145 was > 100 µM (inactive) in each case.
For `C#CC(C)(C)Oc1cc(O)c2c(=O)c3ccccc3n(C)c2c1`, the GI50 with RXF 393 was > 100 µM (inactive); in the test with UACC-257, > 100 µM (inactive); in the test with 786-0 it was 53.3 µM (inactive); in the test with COLO 205, > 100 µM (inactive); in the test on CAKI-1 it was > 100 µM (inactive); with SF-268, > 100 µM (inactive). The GI50 is > 100 µM (inactive) in the test with M14; > 100 µM (inactive) with IGROV-1; > 100 µM (inactive) in the test on K562; above 100 µM with HCT-15; > 100 µM (inactive) with SK-OV-3; > 100 µM (inactive) in the test with NCI-H226.
As for `COC(=O)c1onc(C2OC(C)(C)OC2C(O)COC(c2ccccc2)(c2ccccc2)c2ccccc2)c1C(=O)OC` (centres undefined), the GI50 with RXF 393, with 786-0, with RPMI-8226, with COLO 205, in the test with SF-268 and with Hs-578T was > 100 µM (inactive) in each case. The GI50 with M14 was > 100 µM (inactive); with MDA-MB-435 it was 89.5 µM (inactive); with K562, 72.8 µM (inactive); in the test on MDA-MB-231, 71.8 µM (inactive); with HCT-15 it was above 100 µM; in the test on NCI-H226 it was > 100 µM (inactive). Further, the GI50 with DU-145 is > 100 µM (inactive).
Regarding `C1=C(c2ccccc2)Nc2nnnn2C1c1ccccc1` (centres undefined), the GI50 was 16.7 µM (inactive) with RXF 393; 44 µM (inactive) with NCI/ADR-RES; 48.1 µM (inactive) with UACC-257; 47.2 µM (inactive) in the test with 786-0; < 0.01 µM (active) in the test on RPMI-8226; 48.6 µM (inactive) in the test on COLO 205. The GI50 was 47.6 µM (inactive) with CAKI-1; 32.7 µM (inactive) in the test on SF-268; 37.5 µM (inactive) in the test with Hs-578T; 23.9 µM (inactive) in the test on M14; 83.4 µM (inactive) in the test on IGROV-1; 11.1 µM (inactive) in the test with MDA-MB-435. Moreover, the GI50 in the test on K562 is 21.4 µM (inactive); in the test on MDA-MB-231, > 100 µM (inactive); in the test on HCT-15, 15.3 µM; in the test with SK-OV-3, 58.1 µM (inactive); in the test with NCI-H226 it was 47.4 µM (inactive); in the test with DU-145, 26.9 µM (inactive).
On to `C#CCOCn1ccc(=O)[nH]c1=O`, for which the GI50 in the test on NCI/ADR-RES, in the test on UACC-257, with 786-0, in the test on RPMI-8226, in the test on COLO 205 and in the test with CAKI-1 was > 100 µM (inactive) throughout. Besides, the GI50 in the test with SF-268, with Hs-578T, in the test with M14, in the test with IGROV-1, in the test on MDA-MB-435 and in the test on K562 was > 100 µM (inactive) each time. Besides, the GI50 with MDA-MB-231 was > 100 µM (inactive); in the test on HCT-15, above 100 µM; in the test with SK-OV-3 it was > 100 µM (inactive); in the test with NCI-H226, > 100 µM (inactive); in the test with DU-145 it was > 100 µM (inactive).
Turning to `O=C(Nc1ccccc1C(=O)NC(=O)c1ccccc1NC(=O)c1ccccc1)c1ccccc1`, the GI50 in the test with RXF 393 is 2.88 µM (inactive); in the test with UACC-257 it was 1.86 µM (inactive); in the test with 786-0, 12 µM (inactive); in the test on RPMI-8226 it was 1.46 µM (inactive); with COLO 205, 1.46 µM (inactive); in the test on CAKI-1, 10.6 µM (inactive). In addition, the GI50 in the test with SF-268 was 6.85 µM (inactive); with IGROV-1, 1.86 µM (inactive); in the test on K562 it was 4.83 µM (inactive); in the test on HCT-15 it was 16.9 µM.
`CC(=O)[C@H]1[C@H](O)C[C@@]2(C)[C@@H]3CCc4cc(O)c(OC5OC(CO)C(O)C(O)C5O)cc4C3(C)C(=O)C[C@]12C` (some centres undefined): the GI50 in the test on RXF 393, in the test with NCI/ADR-RES, in the test with UACC-257, with 786-0, with BT-549 and in the test with COLO 205 was > 100 µM (inactive) each time. In addition, the GI50 with CAKI-1, in the test with SF-268, with M14, in the test on IGROV-1, in the test with MDA-MB-435 and in the test with K562 was > 100 µM (inactive) throughout. Besides, the GI50 with MDA-MB-231 was > 100 µM (inactive); in the test with HCT-15 it was above 100 µM; with SK-OV-3 it was > 100 µM (inactive); with NCI-H226, > 100 µM (inactive); in the test on DU-145 it was > 100 µM (inactive).
In the case of `NN/C(=N\S(=O)(=O)c1cc2ccccc2s1)Nc1ccc(Cl)cc1`, the GI50 in the test on RXF 393 is 15.5 µM (inactive); in the test with NCI/ADR-RES it was 20 µM (inactive); with UACC-257 it was 18.5 µM (inactive); with 786-0, 19.6 µM (inactive); in the test on RPMI-8226, 16 µM (inactive); in the test with BT-549, 18.9 µM (inactive). Moreover, the GI50 in the test on COLO 205 was 17.3 µM (inactive); in the test with CAKI-1, 18.5 µM (inactive); in the test with SF-268, 22.8 µM (inactive); in the test with M14, 20.9 µM (inactive); with IGROV-1, 17.3 µM (inactive); in the test on K562, 13.3 µM (inactive). In addition, the GI50 was 20.1 µM (inactive) in the test on MDA-MB-231; 30.5 µM in the test on HCT-15; 34.9 µM (inactive) in the test with SK-OV-3; 19.3 µM (inactive) in the test with NCI-H226; 17.8 µM (inactive) in the test with DU-145.
In the case of `Cc1cc2c(c(C)c1O)C(C)(C)CN2C(=O)C(C)(C)C`, the GI50 in the test with RXF 393 is 22.7 µM (inactive); in the test with NCI/ADR-RES, 16.5 µM (inactive); in the test with UACC-257 it was > 100 µM (inactive); in the test with 786-0, > 100 µM (inactive); in the test with RPMI-8226 it was > 100 µM (inactive); with COLO 205, 86.7 µM (inactive). Moreover, the GI50 in the test on SF-268 was > 100 µM (inactive); with Hs-578T, > 100 µM (inactive); in the test on M14, 80.7 µM (inactive); in the test on IGROV-1, > 100 µM (inactive); in the test with MDA-MB-435, 56 µM (inactive); with K562, 41.5 µM (inactive). In addition, the GI50 in the test with MDA-MB-231 was 86.9 µM (inactive); with HCT-15, above 100 µM; in the test with SK-OV-3, > 100 µM (inactive); with NCI-H226, 26.1 µM (inactive); with DU-145, > 100 µM (inactive).
Turning to `C=C(C)[C@@H]1CC[C@@]2(C)[C@H]1[C@H]1CCC3[C@@]4(C)CC[C@H](O)C(C)(C)[C@@H]4CC[C@@]3(C)[C@]1(C)C[C@@H]2O` (some centres undefined) [CALENDULADIOL], the GI50 in the test on RXF 393 is 25.9 µM (inactive); in the test on NCI/ADR-RES, 56.9 µM (inactive); in the test on UACC-257, 55.2 µM (inactive); in the test with 786-0, 38 µM (inactive); with BT-549 it was > 100 µM (inactive); in the test with CAKI-1, 48.4 µM (inactive). Moreover, the GI50 with SF-268 is 87.1 µM (inactive); with M14, > 100 µM (inactive); in the test with IGROV-1, 60.3 µM (inactive); in the test on MDA-MB-435 it was 23.1 µM (inactive); in the test on K562 it was 6.61 µM (inactive); in the test on MDA-MB-231 it was 46.6 µM (inactive). Moreover, the results for the GI50 in the test with HCT-15, with NCI-H226 and in the test on DU-145 were 18.5 µM, > 100 µM (inactive) and 74.8 µM (inactive), respectively.
On to `Cc1c(O)c(OC2OC(CO)C(O)C(O)C2O)cc2c1C=C[C@@H]1[C@@]2(C)C(=O)C[C@]2(C)[C@@H]([C@@](C)(O)C(O)/C=C/C(C)(C)O)[C@H](O)C[C@@]12C` (some centres undefined), for which the GI50 with RXF 393, in the test with NCI/ADR-RES, in the test with UACC-257, with 786-0, in the test with BT-549 and with COLO 205 was > 100 µM (inactive) in each case. The GI50 in the test on CAKI-1, with SF-268, in the test on M14, in the test on IGROV-1, with MDA-MB-435 and in the test with K562 was > 100 µM (inactive) throughout. Moreover, the GI50 is > 100 µM (inactive) in the test with MDA-MB-231; above 100 µM in the test on HCT-15; > 100 µM (inactive) with SK-OV-3; > 100 µM (inactive) with NCI-H226; > 100 µM (inactive) in the test on DU-145.
For `Cc1nn(C)c2nc3ccc(Cl)cc3c(-c3ccccc3)c12`, the GI50 in the test with RXF 393, in the test on NCI/ADR-RES, with UACC-257, with 786-0, in the test on RPMI-8226 and in the test with BT-549 was > 100 µM (inactive) in each case. In addition, the GI50 in the test on COLO 205, with CAKI-1, in the test with SF-268, in the test with M14, in the test on MDA-MB-435 and in the test on K562 was > 100 µM (inactive) each time. For the same molecule, the GI50 in the test with MDA-MB-231 is > 100 µM (inactive); in the test with HCT-15, above 100 µM; with SK-OV-3 it was > 100 µM (inactive); with NCI-H226 it was > 100 µM (inactive); with DU-145, > 100 µM (inactive).
